# Data published in patent US8586751B2, “Nicotinamide compounds useful as kinase modulators” (Bristol-Myers Squibb Company, priority 2009, dated 2013).
# System: Ramos B cells with beta-lactamase reporter gene under control of an NFAT response element
# Test: NFAT-bla RA1 Reporter Assay (Ramos-NFAT)
# Format: cell-based, human
# Conditions: Homo sapiens, Ramos, read-out: IMM Ramos-NFAT (IC50)
# Experimental: NFAT-bla RA1 Reporter Assay
# Ramos B cells containing a stable integration of a beta-lactamase reporter gene under the control of an NFAT response element (NFAT-bla RA1, Invitrogen, K1434) at a density of 100×10^3 cells/well were incubated with test compounds at 37° C. for 30 min prior to stimulation with F(ab′)2 anti-human IgM (Jackson ImmunoResearch, 109-006-129) at 2.5 μg/ml for 4.5 hrs at 37° C. After stimulation, LiveBLAzer-FRET B/G substrate (CCF2/AM, or CCF4/AM, Invitrogen) was added to each well and incubated for 90 min at room temperature in the dark. Assay plates were read on an LJL Analyst, with raw emission values subtracted from a media-only blank containing substrate in assay media (no cells). The ratios of 460 nm/530 nm emission (405 nm excitation) were used to calculate the amount of stimulation.
row,IC50,SMILES
1,180 nM,CN1CCN(c2ccc(Nc3nc(N4CCC[C@@H](N5CCCC5=O)C4)c(F)cc3C(N)=O)cc2)CC1 [Example 419]
2,40 nM,NC(=O)c1cc(F)c(N2CCC[C@@H](NC(=O)Nc3nccs3)C2)nc1Nc1ccc(N2CCOCC2)cc1 [Example 421]
3,120 nM,NC(=O)c1cc(F)c(N2CCC[C@@H](NC(=O)c3ccccc3)C2)nc1Nc1ccc(N2CCOCC2)cc1 [Example 422]
4,10000 nM,NC(=O)c1cc(F)c(C2CCCC(OC(=O)c3ccccc3)C2)nc1Nc1ccc(N2CCOCC2)cc1 (centres unmarked) [Example 430]
5,4500 nM,COc1ccc([C@H](C)N[C@H]2CCC[C@H](c3nc(Nc4ccc(N5CCOCC5)cc4)c(C(N)=O)cc3F)C2)cc1 [Example 435]
6,7900 nM,COc1ccc([C@H](C)N[C@H]2CCC[C@@H](c3nc(Nc4ccc(N5CCOCC5)cc4)c(C(N)=O)cc3F)C2)cc1 [Example 436]
7,2900 nM,COc1ccc([C@H](C)N[C@@H]2C=C(c3nc(Nc4ccc(N5CCOCC5)cc4)c(C(N)=O)cc3F)CCC2)cc1 [Example 437]
8,80 nM,NC(=O)c1cc(F)c(N2CCC[C@@H](NC(=O)Nc3nccs3)C2)nc1Nc1ccc(N2CCOCC2)c(F)c1 [Example 451]
9,10000 nM,NC(=O)c1cc(F)c(N2CCC[C@@H](NC(=O)c3ccc(F)c(Cl)c3)C2)nc1Nc1ccc(F)cc1 [Example 456]
10,30 nM,CN(C)CCc1ccc(Nc2nc(N3CCC[C@@H](NC(=O)Nc4nccs4)C3)c(F)cc2C(N)=O)cc1 [Example 458]
11,250 nM,CN(C)CCc1ccc(Nc2nc(N3CCC[C@@H](NC(=O)Nc4nncs4)C3)c(F)cc2C(N)=O)cc1 [Example 462]
12,100 nM,CN(C)CCc1ccc(Nc2nc(N3CCCC(F)(F)C3)c(F)cc2C(N)=O)cc1 [Example 475]
13,70 nM,CN1CCN(c2ccc(Nc3nc(N4CCC[C@@H](NC(=O)c5ccccc5)C4)c(F)cc3C(N)=O)cc2F)CC1 [Example 479]
14,40 nM,CN1CCN(c2ccc(Nc3nc(N4CCC[C@@H](NC(=O)Nc5nccs5)C4)c(F)cc3C(N)=O)cc2F)CC1 [Example 480]
15,170 nM,CN1CCN(c2ccc(Nc3nc(N4CCC[C@@H](N5CCCC5=O)C4)c(F)cc3C(N)=O)cc2F)CC1 [Example 482]
16,100 nM,CN1CCC(c2ccc(Nc3nc(N4CCCCC4)c(F)cc3C(N)=O)cc2)CC1 [Example 489]
17,270 nM,CN1CCC(c2ccc(Nc3nc(N4CCC[C@@H](NC(=O)c5ccccc5)C4)c(F)cc3C(N)=O)cc2)CC1 [Example 490]
18,200 nM,CN1CCC(c2ccc(Nc3nc(N4CCC[C@@H](NC(=O)c5ccc(F)cc5)C4)c(F)cc3C(N)=O)cc2)CC1 [Example 491]
19,20 nM,CN1CCC(c2ccc(Nc3nc(N4CCC[C@@H](NC(=O)Nc5nccs5)C4)c(F)cc3C(N)=O)cc2)CC1 [Example 492]
20,130 nM,CN1CCC(c2ccc(Nc3nc(N4CCC[C@@H](NC(=O)Nc5nncs5)C4)c(F)cc3C(N)=O)cc2)CC1 [Example 493]
21,80 nM,NC(=O)c1cc(F)c(N2CCC[C@@H](NC(=O)c3ccccc3)C2)nc1Nc1ccc(N2CCS(=O)(=O)CC2)cc1 [Example 503]
22,150 nM,CS(=O)(=O)c1ccc(Nc2nc(N3CCC[C@@H](NC(=O)c4ccccc4)C3)c(F)cc2C(N)=O)cc1 [Example 506]

row,SMILES,IC50
1,CN1CCC(C)(c2ccc(Nc3nc(N4CCC[C@@H](NC(=O)Nc5ncc(F)s5)C4)c(F)cc3C(N)=O)cc2)CC1 [Example 495],80 nM

# Same assay, conditions: read-out: IMM Ramos-NFAT (IC50)
row,IC50,SMILES
1,50 nM,CN(C)CCc1ccc(Nc2nc(N3CCC[C@@H](NC(=O)Nc4nccs4)C3)c(F)cc2C(N)=O)cc1 [Example 458]

# Molecular target: T1, human recombinant Btk (Homo sapiens, UniProt Q06187)
# T1 construct: purchased Invitrogen Corporation
# Test: Human Recombinant Btk Enzyme Assay (LLE_BTK)
# Format: biochemical
# Conditions: not given
# Experimental: Human Recombinant Btk Enzyme Assay
# To V-bottom 384-well plates were added test compounds, human recombinant Btk (1 nM, Invitrogen Corporation), fluoresceinated peptide (1.5 μM), ATP (20 μM), and assay buffer (20 mM HEPES pH 7.4, 10 mM MgCl2, 0.015% Brij35 and 4 mM DTT in 1.6% DMSO), with a final volume of 30 μL. After incubating at room temperature for 60 min, the reaction was terminated by adding 45 μl of 35 mM EDTA to each sample. The reaction mixture was analyzed on the Caliper LABCHIP® 3000 (Caliper, Hopkinton, Mass.) by electrophoretic separation of the fluorescent substrate and phosphorylated product. Inhibition data were calculated by comparison to no enzyme control reactions for 100% inhibition and no inhibitor controls for 0% inhibition. Dose response curves were generated to determine the concentration required inhibiting 50% of kinase activity (IC50). Compounds were dissolved at 10 mM in dimethylsulfoxide (DMSO) and evaluated at eleven concentrations.
# Using this assay, the following IC50 values derived by non-linear regression analysis were determined and compared to those values of certain compounds in U.S. Publication No. 2007/078136 and U.S. Publication No. 2008/045536.
# T1 sequence (Q06187 whole entry): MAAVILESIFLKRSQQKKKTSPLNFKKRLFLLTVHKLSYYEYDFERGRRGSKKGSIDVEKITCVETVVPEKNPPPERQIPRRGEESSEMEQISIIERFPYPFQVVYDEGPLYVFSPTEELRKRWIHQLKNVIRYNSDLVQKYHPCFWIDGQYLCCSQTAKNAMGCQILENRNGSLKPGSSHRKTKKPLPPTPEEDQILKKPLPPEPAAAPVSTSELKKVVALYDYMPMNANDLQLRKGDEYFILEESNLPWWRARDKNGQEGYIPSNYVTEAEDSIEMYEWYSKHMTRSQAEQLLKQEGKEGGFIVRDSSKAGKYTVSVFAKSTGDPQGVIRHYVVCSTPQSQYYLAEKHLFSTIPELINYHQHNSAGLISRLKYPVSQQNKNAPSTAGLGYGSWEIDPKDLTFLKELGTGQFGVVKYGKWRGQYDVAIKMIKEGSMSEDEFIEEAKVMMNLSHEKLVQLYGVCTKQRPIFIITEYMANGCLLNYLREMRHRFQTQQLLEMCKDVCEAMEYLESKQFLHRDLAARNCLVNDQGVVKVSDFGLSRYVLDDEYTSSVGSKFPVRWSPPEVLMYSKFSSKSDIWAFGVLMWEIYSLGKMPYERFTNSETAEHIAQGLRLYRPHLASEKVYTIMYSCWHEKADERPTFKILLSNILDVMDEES
row,IC50,SMILES
1,1 nM,CN1CCN(c2ccc(Nc3nc(N4CCC[C@@H](N5CCCC5=O)C4)c(F)cc3C(N)=O)cc2)CC1 [Example 419]
2,2 nM,NC(=O)c1cc(F)c(N2CCC[C@@H](NC(=O)Nc3nccs3)C2)nc1Nc1ccc(N2CCOCC2)cc1 [Example 421]
3,20 nM,NC(=O)c1cc(F)c(N2CCC[C@@H](NC(=O)c3ccccc3)C2)nc1Nc1ccc(N2CCOCC2)cc1 [Example 422]
4,740 nM,NC(=O)c1cc(F)c(C2CCCC(OC(=O)c3ccccc3)C2)nc1Nc1ccc(N2CCOCC2)cc1 (centres unmarked) [Example 430]
5,1300 nM,COc1ccc([C@H](C)N[C@H]2CCC[C@H](c3nc(Nc4ccc(N5CCOCC5)cc4)c(C(N)=O)cc3F)C2)cc1 [Example 435]
6,2200 nM,COc1ccc([C@H](C)N[C@H]2CCC[C@@H](c3nc(Nc4ccc(N5CCOCC5)cc4)c(C(N)=O)cc3F)C2)cc1 [Example 436]
7,740 nM,COc1ccc([C@H](C)N[C@@H]2C=C(c3nc(Nc4ccc(N5CCOCC5)cc4)c(C(N)=O)cc3F)CCC2)cc1 [Example 437]
8,0.8 nM,NC(=O)c1cc(F)c(N2CCC[C@@H](NC(=O)Nc3nccs3)C2)nc1Nc1ccc(N2CCOCC2)c(F)c1 [Example 451]
9,4300 nM,NC(=O)c1cc(F)c(N2CCC[C@@H](NC(=O)c3ccc(F)c(Cl)c3)C2)nc1Nc1ccc(F)cc1 [Example 456]
10,0.6 nM,CN(C)CCc1ccc(Nc2nc(N3CCC[C@@H](NC(=O)Nc4nccs4)C3)c(F)cc2C(N)=O)cc1 [Example 458]
11,2 nM,CN(C)CCc1ccc(Nc2nc(N3CCC[C@@H](NC(=O)Nc4nncs4)C3)c(F)cc2C(N)=O)cc1 [Example 462]
12,20 nM,CN(C)CCc1ccc(Nc2nc(N3CCCC(F)(F)C3)c(F)cc2C(N)=O)cc1 [Example 475]
13,1 nM,CN1CCN(c2ccc(Nc3nc(N4CCC[C@@H](NC(=O)c5ccccc5)C4)c(F)cc3C(N)=O)cc2F)CC1 [Example 479]
14,0.2 nM,CN1CCN(c2ccc(Nc3nc(N4CCC[C@@H](NC(=O)Nc5nccs5)C4)c(F)cc3C(N)=O)cc2F)CC1 [Example 480]
15,2 nM,CN1CCN(c2ccc(Nc3nc(N4CCC[C@@H](N5CCCC5=O)C4)c(F)cc3C(N)=O)cc2F)CC1 [Example 482]
16,10 nM,CN1CCC(c2ccc(Nc3nc(N4CCCCC4)c(F)cc3C(N)=O)cc2)CC1 [Example 489]
17,3 nM,CN1CCC(c2ccc(Nc3nc(N4CCC[C@@H](NC(=O)c5ccccc5)C4)c(F)cc3C(N)=O)cc2)CC1 [Example 490]
18,2 nM,CN1CCC(c2ccc(Nc3nc(N4CCC[C@@H](NC(=O)c5ccc(F)cc5)C4)c(F)cc3C(N)=O)cc2)CC1 [Example 491]
19,1 nM,CN1CCC(c2ccc(Nc3nc(N4CCC[C@@H](NC(=O)Nc5nccs5)C4)c(F)cc3C(N)=O)cc2)CC1 [Example 492]
20,0.7 nM,CN1CCC(c2ccc(Nc3nc(N4CCC[C@@H](NC(=O)Nc5nncs5)C4)c(F)cc3C(N)=O)cc2)CC1 [Example 493]
21,7 nM,NC(=O)c1cc(F)c(N2CCC[C@@H](NC(=O)c3ccccc3)C2)nc1Nc1ccc(N2CCS(=O)(=O)CC2)cc1 [Example 503]
22,2 nM,CS(=O)(=O)c1ccc(Nc2nc(N3CCC[C@@H](NC(=O)c4ccccc4)C3)c(F)cc2C(N)=O)cc1 [Example 506]

row,SMILES,IC50
1,CN1CCC(C)(c2ccc(Nc3nc(N4CCC[C@@H](NC(=O)Nc5ncc(F)s5)C4)c(F)cc3C(N)=O)cc2)CC1 [Example 495],1 nM
